Measurements: BindingDB's records for doi:10.7270/Q2251GJ9 (The Scripps Research Institute Molecular Screening Center, 2007)
Where a name gives a salt, the structure may show the parent alone.

Target: Sphingosine 1-phosphate receptor 1 (Homo sapiens, UniProt P21453)
Assay: S1P1 receptor agonists, dose response, cell-based, agonist mode, 60K MLSMR set (AID 468)
[1] = inactive by the depositor's call

Sphingosine 1-phosphate receptor 1, sequence (P21453 whole entry): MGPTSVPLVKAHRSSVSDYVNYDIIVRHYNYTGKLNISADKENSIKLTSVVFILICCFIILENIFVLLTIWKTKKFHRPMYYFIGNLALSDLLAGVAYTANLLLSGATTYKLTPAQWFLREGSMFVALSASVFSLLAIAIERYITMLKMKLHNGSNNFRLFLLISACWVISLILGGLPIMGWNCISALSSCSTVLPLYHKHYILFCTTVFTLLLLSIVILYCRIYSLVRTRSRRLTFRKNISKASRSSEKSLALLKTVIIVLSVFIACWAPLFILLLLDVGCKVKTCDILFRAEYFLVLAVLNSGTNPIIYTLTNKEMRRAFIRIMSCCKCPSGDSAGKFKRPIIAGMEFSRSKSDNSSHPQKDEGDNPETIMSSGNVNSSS

| SMILES | EC50 [µM] | EC50 [1] [µM] |
| --- | --- | --- |
| COC(=O)C1=CN(CCCN2CCCC2=O)C=C(C(=O)OC)C1c1ccccc1C(F)(F)F | > 95 | – |
| CC1=CC(C)(C)Nc2ccc(OC(=O)c3ccco3)cc21 | – | 13.3 |
| CCC(NC(=O)Nc1nnc(C(F)(F)F)s1)(C(F)(F)F)C(F)(F)F | > 95 | – |
| O=S1(=O)C=C(Sc2nnc(-c3ccccc3)o2)c2ccccc21 | – | 20.6 |
| Cn1ncnc2c(=O)n(C)c(=O)nc1-2 | 1.4 | – |
| Oc1ccc(-c2nc(-c3ccc(O)c(O)c3)cs2)cc1 | 12 | – |
| Cc1ccc2[nH]c3c(N4CCN(Cc5ccc6c(c5)OCO6)CC4)ncnc3c2c1 | > 30 | – |
| Fc1ccc2[nH]c3c(N4CCN(c5ccccc5)CC4)ncnc3c2c1 | > 3 | – |
| Cc1n[nH]c(C)c1N1C(=O)c2cccc3c(N4CCCCCC4)ccc(c23)C1=O | – | 13.8 |
| CCOC(=O)/C=C/S(=O)(=O)c1ccc(NC(C)=O)cc1 | > 3 | – |
| Cc1ccc(-c2n[nH]c(=S)n2C)cc1 | > 95 | – |
| Clc1ccc(NCn2cncn2)nc1 | > 95 | – |
| CN1c2ccccc2C(C)(C)C12C=Cc1cc(O)ccc1O2 (centres undefined) [1',3',3'-trimethyl-6-spiro[1-benzopyran-2,2'-indole]ol] | – | 13.1 |
| CC1=NC(=O)NC(c2ccc(Cl)cc2)C1C(=O)OCc1ccc2c(c1)OCO2 (centres undefined) [1,3-benzodioxol-5-ylmethyl 4-(4-chlorophenyl)-6-methyl-2-oxidanylidene-3,4-dihydro-1H-pyrimidine-5-carboxylate] | > 0.03 | – |
| CC(C)C(c1nnnn1Cc1ccccc1)N(Cc1ccco1)Cc1cccs1 (centres undefined) [1-(1-benzyltetrazol-5-yl)-N-(furan-2-ylmethyl)-2-methyl-N-(thiophen-2-ylmethyl)propan-1-amine] | – | 51.2 |
| COc1ccc(-n2c(O)cc(Sc3nnc[nH]3)c2O)c(OC)c1 [1-(2,4-dimethoxyphenyl)-3-(1H-1,2,4-triazol-5-ylthio)pyrrolidine-2,5-dione] | 16.7 | – |
| Cc1ccc(-n2ncc3c(N4CCCC(C)C4)ncnc32)c(C)c1 (centres undefined) [1-(2,4-dimethylphenyl)-4-(3-methylpiperidin-1-yl)-1H-pyrazolo[3,4-d]pyrimidine] | – | 11 |
| CCOc1ccc(S(=O)(=O)N2CCN(c3ccc(C)cc3C)CC2)cc1 [1-(2,4-dimethylphenyl)-4-(4-ethoxyphenyl)sulfonyl-piperazine] | > 10 | – |
| Cc1ccc(C)c(-n2nnnc2Sc2nnnn2-c2ccccc2)c1 [1-(2,5-dimethylphenyl)-5-(1-phenyltetrazol-5-yl)sulfanyltetrazole] | – | 12.8 |
| CC1CCCC(C)N1C(=O)CN1CCN(c2nc(-c3ccc(F)cc3)cs2)CC1 (centres undefined) [1-(2,6-Dimethyl-piperidin-1-yl)-2-{4-[4-(4-fluoro-phenyl)-thiazol-2-yl]-piperazin-1-yl}-ethanone] | – | 12.7 |
| CCN(CC)C(=O)C1CCN(S(=O)(=O)c2ccc3oc4ccccc4c3c2)CC1 [1-(2-dibenzofuranylsulfonyl)-N,N-diethyl-4-piperidinecarboxamide] | – | 31.7 |
| CC(C)Cn1c(=O)c(C(=O)Nc2ccccc2S(N)(=O)=O)c(O)c2ccccc21 [1-(2-methylpropyl)-2-oxidanyl-4-oxidanylidene-N-(2-sulfamoylphenyl)quinoline-3-carboxamide] | – | 13.4 |
| O=C1CC(N2CCN(C/C=C/c3ccccc3)CC2)C(=O)N1CCc1ccccc1 (centres undefined) [1-(2-phenylethyl)-3-[4-[(E)-3-phenylprop-2-enyl]-1-piperazinyl]pyrrolidine-2,5-dione] | – | 20 |
| COc1ccc(C(=O)C(CN2CCOCC2)c2ccccc2)cc1F (centres undefined) [1-(3-Fluoro-4-methoxy-phenyl)-3-morpholin-4-yl-2-phenyl-propan-1-one] | 22.5 | – |
| CCOC(=O)C1CCN(c2ncnc3c2oc2ccccc23)CC1 [1-(4-benzofuro[3,2-d]pyrimidinyl)-4-piperidinecarboxylic acid ethyl ester] | – | 12 |
| CCCCOc1ccc(S(=O)(=O)n2c(C)nc3ccccc32)cc1 [1-(4-butoxyphenyl)sulfonyl-2-methyl-benzimidazole] | – | 23.2 |
| Cc1cccc(NC(=O)Nc2ccc(C#N)cc2)n1 [1-(4-cyanophenyl)-3-(6-methyl-2-pyridinyl)urea] | > 30 | – |
| O=C(c1ccc(F)cc1)C(CN1CCOCC1)c1ccccc1 (centres undefined) [1-(4-fluorophenyl)-3-(4-morpholinyl)-2-phenyl-1-propanone;hydrochloride] | 17.9 | – |
| CCOC(=O)C1CCN(c2ncnc3c2oc2ccc(Cl)cc23)CC1 [1-(8-chloro-4-benzofuro[3,2-d]pyrimidinyl)-4-piperidinecarboxylic acid ethyl ester] | > 95 | – |

Continued, values first:

| EC50 [µM] | EC50 [1] [µM] | SMILES |
| --- | --- | --- |
| 6.14 | – | c1ccc2c(c1)oc1c(N3CCN(Cc4ccc5c(c4)OCO5)CC3)ncnc12 |
| 5.9 | – | CCC1CCCCN1C(=O)CSc1nnc(-c2c[nH]c3ccccc23)o1 (centres undefined) |
| 7.07 | – | O=C(CSc1nnc(-c2c[nH]c3ccccc23)o1)N1c2ccccc2CCc2ccccc21 |
| 0.857 | – | O=C(Nc1ccc(N2CCCCC2)c(Cl)c1)c1nnc[nH]1 |
| 4.51 | – | COc1ccc2[nH]c(=O)c3c(c2c1)OC(C)(C)C=C3 |
| 1.02 | – | O=C(CSc1nnc(-c2c[nH]c3ccccc23)o1)N(Cc1ccccc1)c1ccc(F)cc1 |
| 1.02 | – | Oc1c(Cl)cc(Cl)cc1Sc1cc(Cl)cc(Cl)c1O |
| 4.41 | – | CC(C)OCCCNc1ncnc2c1[nH]c1ccc(F)cc12 |
| 1.95 | – | c1ccc(CSc2nnc(-c3c[nH]c4ccccc34)o2)cc1 |
| 9.43 | – | O=C(Cc1c[nH]c2ccccc12)N1CCc2ccccc21 |
| 5.27 | – | Cc1cc(C(=O)CSc2nnc(-c3ccccc3)n2-c2ccccc2)c(C)n1-c1nnc[nH]1 |
| 8.79 | – | CN1/C(=C/C(=O)c2nc(S(C)(=O)=O)ncc2Cl)C(C)(C)c2ccccc21 |
| 4.19 | – | CCCCOC(=O)c1[nH]c2c(c1C)C(=O)CC(c1cc(OC)c(OC)c(OC)c1)C2 (centres undefined) |
| 6.03 | – | CCc1ccc(N(CC)c2ncnc3nc[nH]c23)cc1 |
| 5.94 | – | CCc1oc2ccccc2c1C(=O)c1cc(Br)c(O)c(Br)c1 |
| 0.437 | – | CC1=NC(=O)NC(c2ccc(F)cc2)C1C(=O)OCc1ccc2c(c1)OCO2 (centres undefined) [1,3-benzodioxol-5-ylmethyl 4-(4-fluorophenyl)-6-methyl-2-oxidanylidene-3,4-dihydro-1H-pyrimidine-5-carboxylate] |
| 1.84 | – | CC1=NC(=O)NC(c2ccccc2)C1C(=O)OCc1ccc2c(c1)OCO2 (centres undefined) [1,3-benzodioxol-5-ylmethyl 6-methyl-2-oxidanylidene-4-phenyl-3,4-dihydro-1H-pyrimidine-5-carboxylate] |
| 7.77 | – | O=C(Nc1ccc(OC(F)F)c(Cl)c1)Nc1ccc2c(c1)OCO2 [1-(1,3-benzodioxol-5-yl)-3-[3-chloro-4-(difluoromethoxy)phenyl]urea] |

| EC50 [µM] | EC50 [1] [µM] | SMILES |
| --- | --- | --- |
| 5.16 | – | Cc1cccc(-c2nc(CSCC(=O)N3CCN(Cc4ccc5c(c4)OCO5)CC3)c(C)o2)c1 [1-(1,3-benzodioxol-5-ylmethyl)-4-[({[5-methyl-2-(3-methylphenyl)-1,3-oxazol-4-yl]methyl}thio)acetyl]piperazine] |
| 0.415 | – | Cc1nn(-c2nc3ccccc3s2)c(N)c1-c1ccccc1 [1-(1,3-benzothiazol-2-yl)-3-methyl-4-phenyl-1H-pyrazol-5-amine] |
| 9.52 | – | C=CCn1c(C)cc(C(=O)CSc2nc3ccccc3o2)c1C [1-(1-allyl-2,5-dimethyl-pyrrol-3-yl)-2-(1,3-benzoxazol-2-ylthio)ethanone] |
| 10.5 | – | O=C(CCN1CCc2ccccc2CC1)c1ccc2c(c1)OCCO2 [1-(2,3-dihydro-1,4-benzodioxin-6-yl)-3-(1,2,4,5-tetrahydro-3-benzazepin-3-yl)-1-propanone;hydrochloride] |
| 4.2 | – | O=S(=O)(c1cccs1)N1CCN(CC(O)COc2cc(Cl)ccc2Cl)CC1 (centres undefined) [1-(2,5-dichlorophenoxy)-3-(4-thiophen-2-ylsulfonyl-1-piperazinyl)-2-propanol] |
| 4.66 | – | Cc1cc(C(=O)CSc2nnc(-c3cccs3)o2)c(C)n1-c1ccccc1 [1-(2,5-dimethyl-1-phenyl-3-pyrrolyl)-2-[(5-thiophen-2-yl-1,3,4-oxadiazol-2-yl)thio]ethanone] |
| 5.91 | – | Cc1cc(C(=O)CSc2nnnn2-c2ccc(O)cc2)c(C)n1Cc1ccc2c(c1)OCO2 [1-(2,5-dimethyl-1-piperonyl-pyrrol-3-yl)-2-[[1-(4-hydroxyphenyl)tetrazol-5-yl]thio]ethanone] |
| 7.29 | – | COc1ccccc1N=C(N)Nc1nc(CSc2ccc(C)cc2)cc(=O)[nH]1 [1-(2-methoxyphenyl)-2-[6-[[(4-methylphenyl)thio]methyl]-4-oxo-1H-pyrimidin-2-yl]guanidine] |
| 4.47 | – | Cc1occc1C(=O)N1CCN(c2ccc(Cl)c(Cl)c2)CC1 [1-(3,4-dichlorophenyl)-4-(2-methyl-3-furoyl)piperazine] |
| 6.58 | – | COc1ccc(S(=O)(=O)N2CCN(c3ccc(C)cc3C)CC2)cc1OC [1-(3,4-dimethoxyphenyl)sulfonyl-4-(2,4-dimethylphenyl)piperazine] |
| 3.83 | – | COc1cc(-c2noc(C3CCCN(S(=O)(=O)c4cccc(Cl)c4)C3)n2)cc(OC)c1OC (centres undefined) [1-(3-Chloro-benzenesulfonyl)-3-[3-(3,4,5-trimethoxy-phenyl)-[1,2,4]oxadiazol-5-yl]-piperidine] |
| 8.72 | – | COc1cccc(NC(=O)Nc2nnc(N3CCCCC3C)s2)c1 (centres undefined) [1-(3-methoxyphenyl)-3-[5-(2-methyl-1-piperidinyl)-1,3,4-thiadiazol-2-yl]urea] |
| 2.82 | – | CCCS(=O)(=O)c1nnnn1-c1cccc(OC)c1 [1-(3-methoxyphenyl)-5-(propylsulfonyl)-1H-tetrazole] |
| 6.73 | – | CCOc1ccc(S(=O)(=O)n2cnc3cc(C)c(C)cc32)cc1 [1-(4-Ethoxy-benzenesulfonyl)-5,6-dimethyl-1H-benzoimidazole] |
| 9.38 | – | N#Cc1ccc(NC(=O)Nc2ccc(Cl)cc2)cc1 [1-(4-chlorophenyl)-3-(4-cyanophenyl)urea] |
| 2.26 | – | COc1cc(CSc2nnnn2-c2ccc(C)cc2)cc(OC)c1OC [1-(4-methylphenyl)-5-[(3,4,5-trimethoxybenzyl)thio]-1H-tetrazole] |
| 3.91 | – | OC1(c2cccc(C(F)(F)F)c2)CCN(c2ncnc3c2[nH]c2ccc(F)cc23)CC1 [1-(8-fluoranyl-5H-pyrimido[5,4-b]indol-4-yl)-4-[3-(trifluoromethyl)phenyl]piperidin-4-ol] |
